{"source": "patent US11376235B2", "about": "“Inhibitor of inflammasome activation” (KRACIE HOLDINGS, LTD., priority 2016, dated 2022)", "key": {"[1]": {"test_system": "NLRP3 inflammasome", "assay": "Inflammasome activation by ATP stimulation in PMA-differentiated, LPS-treated THP1-Null cells (Test 1)", "assay_type": "cell-based, human", "conditions": "ATP 5 mM stimulation, arctigenin at concentrations of 10 μM and higher, 1 h pretreatment, vs Control without arctigenin, Dunnett's test", "protocol": "(§1) THP1-Null cells (Invivogen) or THP-1 cells (JCRB Cell Bank), which are NLRP3 inflammasome reporter cell lines derived from human monocytic cells, were cultured in a RPMI medium containing 10% FBS and 4.5% glucose (hereinafter referred to as a THP1 culture medium, SIGMA). The cells were treated with 500 nM PMA (SIGMA) for 3 hours to differentiate the cells into macrophages, and the cells were washed with PBS twice and then used for the following experiment.\n(§2) The THP1-Null cells or the THP-1 cells after the induction of differentiation were suspended in the THP1 culture medium at 1.0×10^6 cells/mL and seeded in a 96-well microplate at 180 μL per well (1.8×10^5 cells/well). […] The IL-1β concentrations of the culture supernatants were measured using IL-1β reporter cell line HEKBlue (trademark) IL-18/IL-1β cells (Invivogen) or the ELISA method. The caspase-1 concentrations of the culture supernatants were also measured by the ELISA method.\n(§3) HEK Blue (trademark) IL-18/IL-1β cells were used for measuring the IL-1β concentrations of the medium supernatants collected after the ATP treatment. […] The absorbance of each well at 655 nm was measured using a microplate reader, and the IL-1β concentration was measured. […]\n(§4) Caspase-1 was measured following the TDS of Quantikine (registered trademark) ELISA Human Caspase-1/ICE (R&D systems (trademark)). […]"}, "[2]": {"test_system": "NLRP3 inflammasome", "assay": "Inflammasome activation by palmitic acid stimulation in PMA-differentiated, LPS-treated THP1-Null cells (Test 2)", "assay_type": "cell-based, human", "conditions": "palmitic acid 500 μM stimulation, 12 h, arctigenin 500 nM pretreatment, vs Control, Student's t-test, ELISA", "protocol": "as §1, §2, §3, §4"}, "[3]": {"test_system": "NLRP3 inflammasome", "assay": "Inflammasome activation by MSU stimulation in PMA-differentiated, LPS-treated THP1-Null cells (Test 3)", "assay_type": "cell-based, human", "conditions": "MSU 100 μg/mL stimulation, 3 h, vs Control, ELISA", "protocol": "as §1, §2, §3, §4"}, "[4]": {"test_system": "AIM2 inflammasome", "assay": "Inflammasome activation by Poly(dA:dT) stimulation in PMA-differentiated, LPS-treated THP-1 cells (Test 4)", "assay_type": "cell-based, human", "conditions": "Poly(dA:dT)/LyoVec 5 μg/mL stimulation, 8 h, vs Control, Student's t-test, ELISA", "protocol": "as §1, §2, §3, §4"}, "[5]": {"conditions": "stated as a fact, no test described; cited from earlier work"}}}
{"smiles": "COc1cc(C[C@H]2C(=O)OC[C@@H]2Cc2ccc(OC)c(OC)c2)ccc1O", "note": "[arctigenin]", "values": [{"measurement": "caspase-1 amount", "setting": "[1]; ELISA, FIG. 2", "value": "decreased with significance"}, {"measurement": "released IL-1β amount", "setting": "[1]; HEK Blue IL-18/IL-1β reporter cells, FIG. 1", "value": "decreased with significance"}, {"measurement": "released IL-1β amount", "setting": "[2]; FIG. 3", "value": "decreased with significance"}, {"measurement": "caspase-1 amount", "setting": "[2]; FIG. 4", "value": "decreased with significance"}, {"measurement": "released IL-1β amount", "setting": "[3]; arctigenin at concentrations of 10 μM and higher, Dunnett's test, FIG. 5", "value": "decreased with significance"}, {"measurement": "caspase-1 amount", "setting": "[3]; arctigenin pretreatment, FIG. 6", "value": "decreased concentration-dependently"}, {"measurement": "caspase-1 amount", "setting": "[4]; arctigenin 250 nM pretreatment, FIG. 8", "value": "decreased with significance"}, {"measurement": "released IL-1β amount", "setting": "[4]; arctigenin 500 nM pretreatment, FIG. 7", "value": "decreased with significance"}, {"measurement": "solubility in water", "setting": "[5]", "value": "insoluble in water"}]}
